Test results taken from patent US20110190492A1, “DIAGNOSTIC PROBE FOR CONFORMATION DISEASE” (TOHOKU UNIVERSITY, priority 2005, published 2011).
Like-named read-outs stand apart in the source and are kept apart here.

Legend:
[1] = test system: histidine-requiring Salmonella typhimurium TA100 and TA98 strains; settings: in the presence of S9mix; literature comparison compounds; cited from earlier work
[2] = biological target: T1, Tg mouse intracerebral amyloid plaque (amyloid β protein) (Homo sapiens, UniProt P05067); experiment: Tg mice with amyloid β deposition: intravenous administration, ex-vivo fluorescence microscopy of brain sections; format: in vivo, Tg mouse (Tg2576 or APPswe2576/Tau JPL3)
T1 construct: a Tg mouse (Tg2576) with amyloid β protein deposition; from tissue
T1 sequence (P05067 672-713 limits assumed): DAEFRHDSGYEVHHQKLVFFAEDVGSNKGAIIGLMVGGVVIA

amyloid β protein = biological target: T2, amyloid β protein (Homo sapiens, UniProt P05067); experiment: Staining test on a brain section of an Alzheimer disease patient (amyloid β protein); format: binding, human (Alzheimer disease patient); settings: 100 μM compound in 50% ethanol, 10 minutes, fluorescence microscopy
T2 construct: from tissue; host or cells: paraffin-embedded human brain sections (temporal lobe, hippocampus) of Alzheimer disease patients
T2 sequence (P05067 672-713 limits assumed): as above
Description: (1) Brain specimens at the temporal lobe and the hippocampus of patients to which a definitive diagnosis of Alzheimer disease had been given, and those of normal senile persons were used. The specimens were given by our coworker, Fukushimura Hospital, Longevity Medicine Institute, and we were given their consent of use of the specimens for our study purpose by the bereaved of the patients (Fukushimura Hospital Ethical Review Board Approval No. 20).
(2) The paraffin-embedded brain tissue was cut into slices having a thickness of 6 μm or 8 μm, and extended and dried on a slide. The paraffin brain section was processed for paraffin removal in xylene twice for 10 minutes, 100% ethanol twice for 5 minutes, 90% ethanol for 5 minutes and running water for 10 minutes in that order.
(3) For pretreatment prior to the staining treatment with a compound of the invention, the sections were processed for autofluorescence removal with lipofuscin. First, the paraffin-removed sections were dipped in 0.25% KMnO4 solution for 20 minutes. These were washed with PBS, twice for 2 minutes, then dipped in 0.1% K2S2O5/oxalic acid solution for about 5 seconds, and then further washed with PBS, three times for 2 minutes.
(4) About 150 μl of a 100 μM solution of a compound of the invention dissolved in 50% ethanol was dropwise applied to the section and reacted for 10 minutes. After dipped five times in tap water, the section was entrapped with Fluor Save Reagent (Calbiochem), and analyzed through microscopy with a fluorescence microscope (Nikon, Eclipse 80i). The images were taken with a digital camera (Nikon Dxm 1200F or Photometrics' Cool SNAP ES).

[3] = test system: histidine-requiring Salmonella typhimurium TA100 and TA98 strains; experiment: Mutagenicity test (reverse mutation test); format: cell-based; settings: for relative activity: irrespective of the absence or presence of S9mix
Experimental: In view of their use, it is desirable that the compounds of the invention have no mutagenicity or have little mutagenicity to a level causing no problem. For investigating the gene mutagenesis of the compounds of the invention, herein carried out was a reverse mutation test with histidine-requiring Salmonella typhimurium TA100 and TA98 strains. Two tests were carried out. One is a test for dose determination test; and the other is for mutagenicity.
The test methods and the mutagenicity of the compounds of the invention are mentioned below. In the dose determination test, six doses of 0.160, 0.800, 4.00, 20.0, 100 and 500 μg/plate (common ratio 5) were tried.
As a result of the dose determination test, when the mutagenicity of the test compound was admitted, then the actual test for mutagenicity was carried out, using the dose capable of giving an accurate dose-reaction curve. When no mutagenicity of the test compound was admitted in the dose determination test and when the growth inhibition of the test cells was admitted therein, then the dose to present the growth inhibition was taken as the maximum dose; and when the growth inhibition was not admitted, then a dose of 5000 μg/plate was taken as the maximum dose. With that, the actual test for mutagenicity was carried out on the level of 6 doses (common ratio 2).
First, a test compound was dissolved or suspended in DMSO, then diluted in order to prepare test compound liquids having a varying concentration.
100 μl of a test compound liquid or a negative control (DMSO) solution was put into a sterilized test tube. Then, for the case in the absence of a metabolic activation system (−S9mix), 500 μl of 0.1 mol/liter sodium-phosphate buffer (pH 7.4) was added to it; and for the case in the presence of a metabolic activation system (+S9mix), 500 μl of S9mix was added to it.
Next, 100 μl of the test strain suspension that had been cultivated with shaking at 37° C. for 8 hours was added to it, and preincubated in a shaking thermostat at 37° C. for 20 minutes. After shaken, 2 ml of top agar was added to it, and the contents were mixed.
Next, the mixture was poured onto a minimal glucose agar plate medium (plate) and spread uniformly thereon, then the top agar was solidified, and the plate was transferred into a thermostat and incubated at 37° C. for 48 hours.
Then, the number of the colonies grown through reverse mutation was counted.
For counting it, […]. After area correction and miss-counting correction, the number of the colonies was computed. When the colony analyzer could not be used owing to the deposition of the test compound or the cell growth inhibition, then the number of the colonies was counted with the naked eye.
In case where the number of the colonies through reverse mutation increased two times or more that of the negative control and where the dose dependency or the reproducibility of the increase was admitted, then the tested sample was decided as positive. When the sample was decided as positive, then the relative activity that indicates the relative comparative value of the intensity of the mutagenicity of the test compound was obtained according to the following formula:
Relative Activity={(number of colonies per plate having the concentration)−(number of colonies per negative control plate)}/the value of concentration (mg/plate).

[4] = Acute toxicity test, intravenous administration to mice; format: in vivo; settings: mice observed for 7 days
Experimental: The compounds of the invention were tested for their acute toxicity through intravenous administration thereof to mice. Four Crj:CD1 male mice formed one test group, and some test groups of those mice were used (the mean body weight of the mice of each group was from 31 to 32 g). A test compound was dissolved in a mixture of 1 N HCl, polyethylene glycol-400 and distilled water, or dissolved in DMSO, and then diluted with distilled water. This was administered to each mouse via its tail vein.

Row | Compound | relative activity [1] | binding to amyloid β protein in the brain section of an Alzheimer disease patient (amyloid β protein) | relative activity [3] | other results
1 | CC(=C(C#N)C#N)c1ccc2cc(N(C)CCF)ccc2c1 [FDDNP] | extremely high | – | – | –
2 | CN(C)c1ccc(-c2cn3cc(I)ccc3n2)cc1 [IMPY] | extremely high | – | – | –
3 | Cc1cc2nc(/C=C/c3ccc(N4CCOCC4)s3)sc2cc1C [THK-097, 5,6-dimethyl-2-[2-(5-morpholin-4-yl-thiophen-2-yl)vinyl]-benzothiazole] | – | bound to the amyloid β protein | minus | passage through the blood-brain barrier and binding to Tg mouse intracerebral amyloid plaque ([2]; intravenous administration via tail vein, brain fixed after 1 hour, fluorescence microscopy (THK-097 0.2 mg/kg; THK-525, THK-727, THK-702 4 mg/kg)): passed through the blood-brain barrier, and bound to the Tg mouse intracerebral amyloid plaque; Relative Activity in the absence of S9Mix ([3]; (colonies per plate − colonies per negative control plate)/concentration (mg/plate), in the absence of S9Mix as printed in head): minus; Relative Activity in the presence of S9Mix ([3]; (colonies per plate − colonies per negative control plate)/concentration (mg/plate), in the presence of S9Mix as printed in head): minus^1)
4 | OCC(CF)Oc1ccc2nc(/C=C/c3cnc(N4CCOCC4)s3)oc2c1 (centres unmarked) [THK-702, (E)-2-[2-(2-morpholinothiazol-5-yl)ethenyl]-6-[(1-fluoromethyl-2-hydroxy)ethoxy]-benzoxazole] | – | The white space arrow indicates amyloid β protein | minus | correspondence of binding site with anti-Aβ antibody-stained site of the same section ([2]; Tg2576 mouse, 4 mg/kg intravenous, antibody 4G8): completely corresponded to the anti-Aβ antibody-stained site of the same section; Maximum Permissible Dose [4]: ≧10 mg/kg
